Columns and labels:
Collagenase-3 (MMP-13) = Collagenase-3 (MMP-13) (Homo sapiens, UniProt P45452); assay: Collagenase-3 (MMP-13) inhibitory activity, fluorogenic peptide substrate cleavage; format: biochemical; details: read-out: MMP13 IC50
Protocol: (§1) Gelatinase (MMP-2) inhibitory activities can be determined as follows: Stock solutions of substrate (MCA-Lys-Pro-Leu-Gly-Leu-Dpa-Ala-Arg-NH2) are prepared in DMSO at a concentration of 1.4 mM. Stock solutions of inhibitors (0.03 μM-3 mM) are also prepared in DMSO. The inhibitors are diluted into the assay solutions, and the controls use an equal volume of DMSO so that the final DMSO concentration from the inhibitor and substrate dilutions in all assays is 1.0%. Assays are performed in an assay buffer (100 mM sodium chloride, 10 μM ZnCl. Sub 2, 10 mM CaCl2, 100 mM Tris-Cl pH7.5, 0.05% Brij-35), containing 1.0% DMSO from the substrate and inhibitor additions. The substrate concentration used in the assays is 5 μM. The assays are carried out at 20-25° C. The fluorescence changes, as a result of substrate cleavage, are monitored using an excitation wavelength of 325 nm and an emission wavelength of 405 nm. The reaction mixtures are added in duplicate into appropriate wells of a 384-well assay plate. The reaction mixtures are preincubated with the inhibitors for 60 minutes The reactions are started by the addition of MMP substrate, and the fluorescence intensity changes are measured after 60 minutes The apparent enzyme activity in the presence of an inhibitor is then compared with that in the absence of any inhibitor to determine the inhibition effect of the inhibitor. These techniques are within the knowledge of one skilled in the art. The inhibition results are expressed as the inhibitor concentrations required to effect 50% inhibition (IC50) of the enzyme activity, as compared with the control (non-inhibited) reactions.
Collagenase-3 (MMP-13) inhibitory activity is determined as described above. Recombinant pro-collagenase-3 is activated with 1 mM APMA, and stored in the assay buffer after extensive dialysis in the assay buffer.

Gelatinase (MMP-2) = target: T1, Gelatinase (MMP-2) (Homo sapiens, UniProt P08253); assay: Gelatinase (MMP-2) inhibitory activity, fluorogenic peptide substrate cleavage; format: biochemical; details: read-out: MMP02 IC50
T1 sequence (P08253 110-660): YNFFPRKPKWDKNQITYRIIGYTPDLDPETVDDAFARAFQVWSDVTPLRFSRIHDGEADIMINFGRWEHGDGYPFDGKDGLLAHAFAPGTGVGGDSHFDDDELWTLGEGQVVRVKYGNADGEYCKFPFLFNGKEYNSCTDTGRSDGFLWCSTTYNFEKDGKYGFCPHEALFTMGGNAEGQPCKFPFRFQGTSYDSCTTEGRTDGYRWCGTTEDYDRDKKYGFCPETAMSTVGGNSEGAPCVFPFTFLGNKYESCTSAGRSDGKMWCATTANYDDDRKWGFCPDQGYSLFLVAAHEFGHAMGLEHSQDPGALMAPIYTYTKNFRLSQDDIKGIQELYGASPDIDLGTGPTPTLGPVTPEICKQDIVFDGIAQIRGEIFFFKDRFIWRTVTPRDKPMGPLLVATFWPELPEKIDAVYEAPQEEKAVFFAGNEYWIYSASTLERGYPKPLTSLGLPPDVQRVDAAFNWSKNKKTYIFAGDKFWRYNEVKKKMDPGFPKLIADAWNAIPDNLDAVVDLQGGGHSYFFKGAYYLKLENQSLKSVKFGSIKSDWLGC
Protocol: as §1

`NS(=O)(=O)c1cc(C(=O)c2ccc(N3CC=CC3)cc2)ccc1Cl` [Example 81, 2-Chloro-5-[4-(2,5-dihydro-pyrrol-1-yl)-benzoyl]-benzenesulfonamide] was tested, and the IC50 (Collagenase-3 (MMP-13)) was 1010 nM and the IC50 (Gelatinase (MMP-2)) was 1310 nM.

`NS(=O)(=O)c1cc(C(=O)c2ccc(-n3cccc3)cc2)ccc1Cl` [Example 82, 2-Chloro-5-(4-pyrrol-1-yl-benzoyl)-benzenesulfonamide] was tested, and the IC50 (Collagenase-3 (MMP-13)) was 860 nM and the IC50 (Gelatinase (MMP-2)) was 1150 nM.

`NS(=O)(=O)c1cc(C(=O)c2ccc(N3CCCCC3)cc2)ccc1Cl` [Example 83, 2-Chloro-5-(4-piperidin-1-yl-benzoyl)-benzenesulfonamide] was tested, and the IC50 (Collagenase-3 (MMP-13)) was 1770 nM and the IC50 (Gelatinase (MMP-2)) was 870 nM.

Work on `CC1CCCN(c2ccc(C(=O)c3ccc(Cl)c(S(N)(=O)=O)c3)cc2)C1` (stereo not shown) [Example 84, 2-Chloro-5-[4-(3-methyl-piperidin-1-yl)-benzoyl]-benzenesulfonamide] yielded an IC50 (Collagenase-3 (MMP-13)) of 7540 nM and an IC50 (Gelatinase (MMP-2)) of 1350 nM.

`NS(=O)(=O)c1cc(C(=O)c2ccc(N3CCC(c4ccccc4)CC3)cc2)ccc1Cl` [Example 85, 2-Chloro-5-[4-(4-phenyl-piperidin-1-yl)-benzoyl]benzenesulfonamide] was tested, and the IC50 (Collagenase-3 (MMP-13)) was 570 nM and the IC50 (Gelatinase (MMP-2)) was 2050 nM.

For `NS(=O)(=O)c1cc(C(=O)c2ccc(N3CCC(Cc4ccccc4)CC3)cc2)ccc1Cl` [Example 86, 5-[4-(4-Benzyl-piperidin-1-yl)-benzoyl]-2-chloro-benzenesulfonamide], the IC50 (Collagenase-3 (MMP-13)) was 7670 nM and the IC50 (Gelatinase (MMP-2)) was over 30000 nM.

Work on `CN1CCN(c2ccc(C(=O)c3ccc(Cl)c(S(N)(=O)=O)c3)cc2)CC1` [Example 87, 2-Chloro-5-[4-(4-methyl-piperazin-1-yl)-benzoyl]-benzenesulfonamide] yielded an IC50 (Collagenase-3 (MMP-13)) of 1190 nM and an IC50 (Gelatinase (MMP-2)) of 1740 nM.

`NS(=O)(=O)c1cc(C(=O)c2ccc(N3CCOCC3)cc2)ccc1Cl` [Example 88, 2-Chloro-5-(4-morpholin-4-yl-benzoyl)-benzenesulfonamide] was tested, and the IC50 (Collagenase-3 (MMP-13)) was 1840 nM and the IC50 (Gelatinase (MMP-2)) was 960 nM.

Work on `NS(=O)(=O)c1cc(C(=O)c2ccc(N3CCC3=O)cc2)ccc1Cl` [Example 89, 2-Chloro-5-[4-(2-oxo-azetidin-1-yl)-benzoyl]-benzenesulfonamide] yielded an IC50 (Collagenase-3 (MMP-13)) of 3340 nM and an IC50 (Gelatinase (MMP-2)) of 2060 nM.

In the case of `NS(=O)(=O)c1cc(C(=O)c2ccc(N3CCCCCC3)cc2)ccc1Cl` [Example 90, 5-(4-Azepan-1-yl-benzoyl)-2-chloro-benzenesulfonamide], the IC50 (Collagenase-3 (MMP-13)) is reported as 10800 nM and the IC50 (Gelatinase (MMP-2)) is reported as 13800 nM.

Work on `COc1ccc(C(=O)c2ccc(Cl)c(S(=O)(=O)NCCc3ccc([N+](=O)[O-])cc3)c2)cc1` [Example 91, 2-Chloro-5-(4-methoxy-benzoyl)-N-[2-(4-nitro-phenyl)-ethyl]-benzenesulfonamide] yielded an IC50 (Collagenase-3 (MMP-13)) of 22500 nM and an IC50 (Gelatinase (MMP-2)) of over 30000 nM.

In the case of `NS(=O)(=O)c1cc(C(=O)c2ccc(Nc3ccccc3)cc2)ccc1Cl` [Example 92, 2-Chloro-5-(4-phenylamino-benzoyl)-benzenesulfonamide], the IC50 (Collagenase-3 (MMP-13)) is reported as 20700 nM and the IC50 (Gelatinase (MMP-2)) is reported as 22800 nM.

Compound `NS(=O)(=O)c1cc(C(=O)c2ccc3ccccc3c2)ccc1Cl` [Example 93, 2-Chloro-5-(naphthalene-2-carbonyl)benzenesulfonamide] has an IC50 (Collagenase-3 (MMP-13)) of 13700 nM and an IC50 (Gelatinase (MMP-2)) of 26500 nM.

`NS(=O)(=O)c1cc(C(=O)c2ccc3c(c2)CCC3)ccc1Cl` [Example 94, 2-Chloro-5-(indane-5-carbonyl)-benzenesulfonamide] was tested, and the IC50 (Collagenase-3 (MMP-13)) was 22600 nM and the IC50 (Gelatinase (MMP-2)) was 23500 nM.

In the case of `NS(=O)(=O)c1cc(C(=O)c2cc[nH]c2)ccc1Cl` [Example 95, 2-Chloro-5-(1H-pyrrole-3-carbonyl)-benzenesulfonamide], the IC50 (Collagenase-3 (MMP-13)) is reported as 6210 nM and the IC50 (Gelatinase (MMP-2)) is reported as 3970 nM.

Compound `NS(=O)(=O)c1cc(C(=O)c2cccs2)ccc1Cl` [Example 96, 2-Chloro-5-(thiophene-2-carbonyl)-benzenesulfonamide] has an IC50 (Collagenase-3 (MMP-13)) of 14700 nM and an IC50 (Gelatinase (MMP-2)) of 10000 nM.

For `NS(=O)(=O)c1cc(C(=O)c2ccc3nc[nH]c3c2)ccc1Cl` [Example 97, 5-(3H-Benzoimidazole-5-carbonyl)-2-chloro-benzenesulfonamide], the IC50 (Collagenase-3 (MMP-13)) was 630 nM and the IC50 (Gelatinase (MMP-2)) was 1210 nM.

In the case of `Cc1nc2ccc(C(=O)c3ccc(Cl)c(S(N)(=O)=O)c3)cc2[nH]1` [Example 98, 2-Chloro-5-(2-methyl-3H-benzoimidazole-5-carbonyl)-benzenesulfonamide], the IC50 (Collagenase-3 (MMP-13)) is reported as 8310 nM and the IC50 (Gelatinase (MMP-2)) is reported as 2250 nM.

`CCc1n[nH]c2cc(C(=O)c3ccc(Cl)c(S(N)(=O)=O)c3)ccc12` [Example 99, 2-Chloro-5-(3-ethyl-1H-indazole-6-carbonyl)-benzenesulfonamide] gave an IC50 (Collagenase-3 (MMP-13)) of 250 nM and an IC50 (Gelatinase (MMP-2)) of 270 nM.

`Cc1n[nH]c2cc(C(=O)c3ccc(Cl)c(S(N)(=O)=O)c3)ccc12` [Example 100, 2-Chloro-5-(3-methyl-1H-indazole-6-carbonyl)benzenesulfonamide] showed an IC50 (Collagenase-3 (MMP-13)) of 250 nM and an IC50 (Gelatinase (MMP-2)) of 260 nM.

In the case of `CC(C)c1n[nH]c2cc(C(=O)c3ccc(Cl)c(S(N)(=O)=O)c3)ccc12` [Example 101, 2-Chloro-5-(3-isopropyl-1H-indazole-6-carbonyl)-benzenesulfonamide], the IC50 (Collagenase-3 (MMP-13)) is reported as 3650 nM and the IC50 (Gelatinase (MMP-2)) is reported as 6350 nM.

For `NS(=O)(=O)c1cc(C(=O)c2ccc3c(c2)[nH]c2ccccc23)ccc1Cl` [Example 102, 5-(9H-Carbazole-2-carbonyl)-2-chloro-benzenesulfonamide], the IC50 (Collagenase-3 (MMP-13)) was 2710 nM and the IC50 (Gelatinase (MMP-2)) was 1010 nM.

For `CCOC(=O)N1CCc2[nH]c3cc(C(=O)c4ccc(Cl)c(S(N)(=O)=O)c4)ccc3c2C1` [Example 103, 7-(4-Chloro-3-sulfamoyl-benzoyl)-1,3,4,5-tetrahydro-pyrido[4,3-b]indole-2-carboxylic acid ethyl ester], the IC50 (Collagenase-3 (MMP-13)) was 360 nM and the IC50 (Gelatinase (MMP-2)) was 850 nM.

`CCOC(=O)N1CCc2[nH]c3ccc(C(=O)c4ccc(Cl)c(S(N)(=O)=O)c4)cc3c2C1` [Example 104, 8-(4-Chloro-3-sulfamoyl-benzoyl)-1,3,4,5-tetrahydro-pyrido[4,3-b]indole-2-carboxylic acid ethyl ester] was tested, and the IC50 (Collagenase-3 (MMP-13)) was 1900 nM and the IC50 (Gelatinase (MMP-2)) was 21400 nM.

`NS(=O)(=O)c1cc(C(=O)c2ccc3c4c([nH]c3c2)C(=O)NCC4)ccc1Cl` [Example 105, 2-Chloro-5-(1-oxo-2,3,4,9-tetrahydro-1H-beta-carboline-7-carbonyl)-benzenesulfonamide] gave an IC50 (Collagenase-3 (MMP-13)) of 9000 nM and an IC50 (Gelatinase (MMP-2)) of 8000 nM.

`CC(C)(C)C(=O)N1CCc2c([nH]c3ccc(C(=O)c4ccc(Cl)c(S(N)(=O)=O)c4)cc23)C1` [Example 106, 2-Chloro-5-[2-(2,2-dimethyl-propionyl)-2,3,4,9-tetrahydro-1H-beta-carbolise-6-carbonyl]-benzenesulfonamide] was tested, and the IC50 (Collagenase-3 (MMP-13)) was 950 nM and the IC50 (Gelatinase (MMP-2)) was over 2700 nM.

Compound `CN1C(=O)CCC2=C1Cc1cc(C(=O)c3ccc(Cl)c(S(N)(=O)=O)c3)ccc12` [Example 107, 2-Chloro-5-(1-methyl-2-oxo-2,3,4,9-tetrahydro-1H-indeno[2,1-b]pyridine-7-carbonyl)-benzenesulfonamide] has an IC50 (Collagenase-3 (MMP-13)) of 69 nM and an IC50 (Gelatinase (MMP-2)) of 27 nM.

For `CCN1C(=O)CCC2=C1Cc1cc(C(=O)c3ccc(Cl)c(S(N)(=O)=O)c3)ccc12` [Example 108, 2-Chloro-5-(1-ethyl-2-oxo-2,3,4,9-tetrahydro-1H-indeno[2,1-b]pyridine-7-carbonyl)-benzenesulfonamide], the IC50 (Collagenase-3 (MMP-13)) was 4110 nM and the IC50 (Gelatinase (MMP-2)) was 2900 nM.

Work on `Cc1ccc(C)n1-c1ccc(C(=O)c2ccc(Cl)c(S(N)(=O)=O)c2)cc1F` [Example 109, 2-Chloro-5-[4-(2,5-dimethyl-pyrrol-1-yl)-3-fluoro-benzoyl]-benzenesulfonamide] yielded an IC50 (Collagenase-3 (MMP-13)) of 19900 nM and an IC50 (Gelatinase (MMP-2)) of 21800 nM.

In the case of `NS(=O)(=O)c1cc(C(=O)c2c[nH]c3ccccc23)ccc1Cl` [Example 113, 2-Chloro-5-(1H-indole-3-carbonyl)-benzenesulfonamide], the IC50 (Collagenase-3 (MMP-13)) is reported as 3080 nM and the IC50 (Gelatinase (MMP-2)) is reported as 8940 nM.

`Cn1ccc2cc(C(=O)c3ccc(Cl)c(S(N)(=O)=O)c3)ccc21` [Example 114, 2-Chloro-5-(1-methyl-1H-indole-5-carbonyl)-benzenesulfonamide] showed an IC50 (Collagenase-3 (MMP-13)) of 3130 nM and an IC50 (Gelatinase (MMP-2)) of 3310 nM.

Compound `NS(=O)(=O)c1cc(C(=O)c2ccc3cc[nH]c3c2)ccc1Cl` [Example 115, 2-Chloro-5-(1H-indole-6-carbonyl)-benzenesulfonamide] has an IC50 (Collagenase-3 (MMP-13)) of 178 nM and an IC50 (Gelatinase (MMP-2)) of 218 nM.

— US20130096105A1, “ArylSulfonamide Based Matrix Metalloprotease Inhibitors” (NOVARTIS AG, priority 2008, published 2013)
